In PMC3419816 (Journal of molecular neuroscience : MN, 2012):
Read-outs that look alike come from different tables or passages of the source. Positions of bridges follow the written chain, without caps; N, C: chain ends. No end group written: not given here.

Legend:
[1] = tested on: cytosolic Ca^2+ (pancreatic acini); conditions: ref Pace et al., 2003; cited from earlier work
[2] = tested on: VPAC1; conditions: ref Ishihara et al., 1992; Lutz et al., 1993; cited from earlier work
[3] = tested on: phosphatidylinositol turnover; conditions: lung cancer cells, cited from earlier work
[4] = tested on: cAMP; conditions: lung cancer cells, cited from earlier work
[5] = tested on: VPAC2; conditions: ref Ishihara et al., 1992; Lutz et al., 1993; cited from earlier work
[6] = tested on: NCI-H838 cells; conditions: ref Moody et al., cited from earlier work; for growth of NCI-H838 cells: 2003b
[7] = tested on: PAC1; conditions: cited from earlier work
[8] = tested on: ERK; conditions: NCI-H838; ref Moody et al., 2002; cited from earlier work
[9] = tested on: PYK-2; conditions: by an increase in cytoplasmic Ca^2+; ref Lev et al., 1995; cited from earlier work
[10] = tested on: PYK-2; conditions: NCI-H69, ref Roelle et al., 2008, cited from earlier work; for PYK-2 tyrosine phosphorylation: 10 μM
[11] = tested on: PYK-2; conditions: 10 μM, NCI-H510; ref Roelle et al., 2008; cited from earlier work
[12] = tested on: cytosolic Ca^2+ (NCI-H510 cells); conditions: 10 μM, ref Roelle et al., 2008; cited from earlier work
[13] = tested on: cytosolic Ca^2+ (NCI-H69 cells); conditions: 10 μM, ref Roelle et al., 2008; cited from earlier work
[14] = tested on: cytosolic Ca^2+ (NCI-H838 cells); assay: Cytosolic Ca^2+ in Fura-2 AM loaded NCI-H838 cells; format: cell-based; conditions: for effect on PACAP-27-stimulated fluorescence intensity / effect on basal fluorescence intensity: 50 μM inhibitor; for effect on PACAP-27-stimulated fluorescence intensity: 100 nM PACAP-27, Fig. 1; for effect on basal fluorescence intensity: Fig. 1; for effect on PACAP-induced increase in cytosolic Ca^2+ (discussion): NCI-H838 cells
[15] = tested on: prostate, breast, pancreatic and colon tumors; conditions: nude mice; ref Roberts et al., 2008; cited from earlier work
[16] = tested on: PYK-2; conditions: read-out: PYK-2 IC50, cited from earlier work
[17] = tested on: FAK; conditions: read-out: FAK IC50, cited from earlier work
[18] = tested on: PYK-2; assay: Total PYK-2 Western blot, NCI-H838 cells; format: cell-based; conditions: 100 nM, 2 min, Fig. 3A
[19] = tested on: epidermal growth factor receptor (EGFR); conditions: ref Moody et al., 2012, cited from earlier work; for effect on PACAP-induced EGFR tyrosine phosphorylation: NCI-H838
[20] = tested on: glioma tumor; conditions: animal models; ref Halder et al., 2007; cited from earlier work
[21] = tested on: ovarian tumor; conditions: animal models; ref Halder et al., 2007; cited from earlier work
[22] = tested on: ERK; conditions: NCI-H69; ref Roelle et al., 2008; cited from earlier work
[23] = tested on: FAK; conditions: pancreatic acini, cited from earlier work
[24] = ATP binding, ref Roberts et al., 2008
[25] = ATP binding site, ref Liu et al., 2007

Molecule: C/C=C(/C)C(=O)O[C@H]1C(C)=C2[C@H]([C@@H]1OC(=O)CCCCCCC)[C@@](C)(OC(C)=O)C[C@H](OC(=O)CCC)[C@@]1(O)[C@H]2OC(=O)[C@@]1(C)O [thapsigargin]
- effect on CCK-induced increase in cytosolic Ca^2+ [1]: inhibits

Molecule: vasoactive intestinal peptide [VIP]
- binding affinity to VPAC1 [2]: high affinity
- PI turnover ([3]; ref Lee et al., 1990): does not cause PI turnover
- cAMP ([4]; ref Lee et al., 1990): increases
- binding affinity to VPAC2 [5]: high affinity
- growth of NCI-H838 cells [6]: stimulated
- binding affinity to PAC1 ([7]; ref Ishihara et al., 1992, Lutz et al., 1993): low affinity

Molecule: COc1cccc(-c2cc(=O)c3ccccc3o2)c1N [PD98059]
- effect on PACAP-induced ERK tyrosine phosphorylation [8]: inhibited

Molecule: platelet-derived growth factor
- PYK-2 activation [9]: activated

Molecule: bradykinin (RPPGFSPFR; Bradykinin; UniProt P01042 381-389, looked up)
- PYK-2 tyrosine phosphorylation [10]: increased
- PYK-2 tyrosine phosphorylation [11]: increased
- cytosolic Ca^2+ [12]: increased
- cytosolic Ca^2+ [13]: increased

Molecule: COc1ccc2c(c1)CC[C@@H]1[C@@H]2CC[C@]2(C)[C@@H](NCCCCCCN3C(=O)C=CC3=O)CC[C@@H]12 [U73122]
- effect on ionomycin-induced increase in cytosolic Ca^2+ ([14]; 5 μM ionomycin, data not shown): little effect
- effect on PACAP-27-stimulated fluorescence intensity [14]: abolished
- effect on basal fluorescence intensity [14]: little effect

Molecule: CN(c1ncccc1CNc1nc(Nc2ccc3c(c2)CC(=O)N3)ncc1C(F)(F)F)S(C)(=O)=O [PF-562,271]
- growth of prostate, breast, pancreatic and colon tumors [15]: inhibited
- IC50 [16, 24]: 13 nM
- IC50 [17, 24]: 2 nM

Molecule: O=S(=O)(NCCNC/C=C/c1ccc(Br)cc1)c1cccc2cnccc12 [H89]
- effect on PACAP-27-stimulated fluorescence intensity [14]: no effect
- effect on basal fluorescence intensity [14]: no effect

Molecule: pituitary adenylate cyclase activating polypeptide [PACAP]
- total PYK-2 [18]: did not change
- PI metabolites ([3]; ref not given): increases
- cAMP ([4]; ref not given): increases
- growth of NCI-H838 cells [6]: stimulated
- Y^1068-EGFR phosphorylation ([19]; NCI-H838, after 1 min): increased
- binding affinity to PAC1 ([7]; ref not given for PACAP): high affinity
- ERK tyrosine phosphorylation [8]: caused ERK tyrosine phosphorylation

Molecule: CNC(=O)c1ccccc1Nc1nc(Nc2ccc(N3CCOCC3)cc2OC)ncc1Cl [TAE226]
- IC50 [16, 25]: 5 nM
- IC50 [17, 25]: 5 nM
- glioma tumor growth [20]: inhibited
- ovarian tumor growth [21]: inhibited

Molecule: CC(C)(C)n1nc(-c2ccc(Cl)cc2)c2c(N)ncnc21 [PP2]
- effect on GAL- or BK-induced PYK-2 phosphorylation [10]: blocked
- effect on GAL- or BK-induced ERK tyrosine phosphorylation [22]: blocked
- effect on PACAP-induced EGFR tyrosine phosphorylation [19]: inhibited

Molecule: galanin (GWTLNSAGYLLGPHAVGNHRSFSDKNGLTS; Galanin; UniProt P22466 33-62, looked up)
- PYK-2 tyrosine phosphorylation [10]: increased
- PYK-2 tyrosine phosphorylation [11]: increased
- cytosolic Ca^2+ [12]: increased
- cytosolic Ca^2+ [13]: increased

Molecule: vasopressin (CYFQNCPRG-NH2; disulfide 1-6; ends not checked; UniProt P01185 20-28, looked up)
- PYK-2 activation [9]: activated

Molecule: O=C(O)CN(CC(=O)O)c1ccccc1OCCOc1ccccc1N(CC(=O)O)CC(=O)O [BAPTA]
- effect on GAL- or BK-induced PYK-2 phosphorylation [10]: blocked
- effect on PACAP-induced increase in cytosolic Ca^2+ (discussion) [14]: inhibited
- effect on PACAP-induced EGFR tyrosine phosphorylation [19]: not BAPTA inhibited

Molecule: PACAP(6–38): PAC1 antagonist (FTDSYSRYRKQMAVKKYLAAVLGKRYKQRVKNK; ends and bridges not checked; UniProt P18509 137-169, looked up, fragment)
- effect on PACAP-induced increase in cytosolic Ca^2+ (discussion) [14]: blocked
- growth of NCI-H838 cells [6]: inhibited
- inhibition of proliferation of NCI-H838 cells [6]; 2012: inhibited
- effect on PACAP-induced EGFR tyrosine phosphorylation [19]: inhibited

Molecule: CN(C)CCCn1cc(C2=C(c3c[nH]c4ccccc34)C(=O)NC2=O)c2ccccc21 [GF109203X]
- effect on CCK-induced FAK tyrosine phosphorylation ([23]; ref Tapia et al., 1999): unaffected

B1: Cholecystokinin (peptide, UniProt P06307 21-115, looked up)
Cholecystokinin: QPVPPADPAGSGLQRAEEAPRRQLRVSQRTDGESRAHLGALLARYIQQARKAPSGRMSIVKNLQNLDPSHRISDRDYMGWMDFGRRSAEEYEYPS
modifications: Cholecystokinin
- cytosolic Ca^2+ [1]: elevates
- tyrosine phosphorylation of FAK ([23]; ref Pace et al., 2003): causes tyrosine phosphorylation
